In patent US7951789B2 (priority 2006, dated 2011):

Tests used:
[1] = system: HCV Conl subgenomic replicon (GS4.1 cells); experiment: HCV replicon assay (NS4A ELISA, HCV ELISA 2); type: cell-based; details: Hepatitis C virus; GS4.1 cells, 72 hours, NS4A ELISA; read-out: HCV ELISA 2 EC50
In short: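 Huh-7 GS4.1 replicon cells treated 72 h at 37° C. with ten 2-fold dilutions from 75 μM (or single 15 μM), 0.5% DMSO; NS4A measured by ELISA, absorbance 492 nm, replicon-free Huh-7 as negative control. EC50 by four-parameter sigmoidal fit. CC50 from same treatment by MTS-type Cell Titer 96 viability.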

[2] = Cytotoxicity evaluation in GS4.1 cells (Cell Titer 96 AQueous One Solution); type: cell-based; details: human, 72 hours
HBV wt (HepG2) = experiment: Anti-HBV activity in HBV-infected HepG2 cells; type: cell-based; details: N=3
Method: The compound of Example 1 (NM 204) (Hydroxy-tBuSATE N-benzylphosphoramidate derivative of L-ddA) (A550) was contacted with HBV-infected HepG2 cells. EC50 values were measured according to standard techniques.

[3] = system: endogenous HBV polymerase activity; experiment: HBV drug susceptibility assay (EPA read-out); type: cell-based
Method: • a) Collagen-I coated cell culture plates were seeded with cells at a density of 0.25-0.5×10^6 cells per well in 2 ml of growth/selection media. • b) Drug stock solutions were made up freshly in 100% DMSO as 200× stocks. Seven 4-fold dilutions of test compound were prepared ranging from 2.5 μM to 0.0006 μM (final). Master drug dilutions were divided into 4 aliquots, and then stored at −20° C. until used. • c) One day after cells were seeded, drug treatments were initiated by adding 10 μl of drug dilution along with 2 ml of fresh growth/selection media. […] The no-drug control wells received 10 μl of DMSO in fresh media. • d) Cells were treated every-other-day with 2 ml of fresh drug combinations/medium for a total of 8 days. Cell lysates were then collected on day 10 as described below and endogenous polymerase assay were performed. Preparation of Nucleocapsid-Containing Lysates for Epa Analysis • a) Two days after the final drug treatment, cells were harvested. • b) Media was carefully aspirated and the cell monolayers were rinsed once with 1 ml of PBS. • c) 1 ml of lysis buffer (50 mM Tris-HCl pH 7.5/150 mM NaCl/5 mM MgCl2/0.2% NP-40) was added to each well. The detergent is required to strip the outer envelope from virions and to allow capture of the inner nucleocapsids. Plates were kept on ice for >30 min. • d) Lysed cells were transferred to 1.5 ml-microfuge tubes. • e) Lysates were clarified by spinning at room temperature for 5 min at 14,000 rpm. • f) Clarified lysates were transferred to fresh tubes and immediately frozen on dry-ice, then stored at −80° C. until endogenous polymerase assays can be performed as described below. Endogenous Polymerase Assay (EPA) of Cell Lysates • a) EPAs were performed essentially as described in Seifer, et al (1998). J. Virol. 72: 2765-2776. […] The detergent is required to enhance permeability of the nucleocapsids. • d) Following digestion with 1 mg/ml of Proteinase K for 1 hour at 37° C., endogenously ^33P-labeled HBV DNA was liberated via phenol/chloroform extraction. • e) The nucleic acids were then precipitated with one volume of 5 M NH4-acetate and 2.5 volumes 100% EtOH, and separated on a 1% native agarose gel in Tris-borate buffer. • f) Gels were blotted onto positively charged nylon membrane overnight at room temperature via capillary transfer in 0.4 N NaOH. • g) Dried membranes were exposed to a phosphoimager screen (GE Healthcare) overnight at room temperature, then scanned (Storm 860, GE Healthcare) and quantitated with ImageQuant software (GE Healthcare). • h) Dose-response curves were generated using XLfit 4.1 software. The mean effective drug concentrations that inhibit endogenous HBV polymerase activity by 50% were calculated from several independent experiments. Cytotoxicity Determination

HepG2 cells = experiment: In vitro cytotoxicity assay in HepG2 cells (MTS); type: cell-based; details: 9 days, collagen plates
Method: A standard in vitro cytotoxicity assay was performed in HepG2 cells. Cells were exposed to drug for 9 days. Cell viability was determined via MTS staining using a CellTiter 96 Aqueous One Solution cell proliferation assay according to the manufacturer's instructions. • a) HepG2 cells were seeded in 96-well tissue culture plates in 100 μl fresh growth media at 7×10^3 cells per well. • b) Drug stock solutions were made up in 100% DMSO as 400× stock solutions and stored at −20° C. until used. • c) Four hours after cells were plated the drug dilutions were prepared and then added to the cells. Cells received up to 100 μM of drug in a total of 200 μl of fresh growth media containing 0.25% DMSO. Control wells received growth media with 0.25% DMSO growth media. Plates were incubated at 37° C., 5% CO2. • d) Cells were treated every-other-day with fresh growth media and fresh drug dilutions for a total of 8 days as described above. • e) On day 9, cell viability of HepG2 cells was determined by adding 20 μl of MTS CellTiter 96 Aqueous One Solution.

CC(C)(CO)C(=O)SCCOP(=O)(NCc1ccccc1)OC[C@H]1O[C@@H](n2ccc(N)nc2=O)[C@]2(C)OC(=O)O[C@H]12 (stereo partly shown) [Example B302, Hydroxy-tBuSATE N-benzylphosphoramidate 2′,3′-cyclic carbonate Derivative of 2′-C-methylcytidine]
EC50 [1]: 1000 to 10000 nM | CC50 [2]: > 75000 nM | melting point: 100 to 102 °C

Cc1cn([C@@H]2C[C@@H](O)[C@H](CO)O2)c(=O)[nH]c1=O [LdT]
EC50 (HBV wt (HepG2)): 260 ± 48 nM | SI ([3]; CC50/EC50, HBV Cell Assay (EPA Read-out)): >273 | EC50 ([3]; HBV Cell Assay (EPA Read-out), collagen plates, read-out: Antiviral Activity (EC50 in μM)): 0.366 ± 0.056 µM | CC50 (HepG2 cells): > 100 µM
